From patent US5536729A, “Rapamycin formulations for oral administration” (priority 1994, dated 1996)

Columns and labels:
[1] = parameters: species or system Cynomolgus monkeys; details: cynomolgus monkey, in vivo, po, 50 mg/kg
Procedure: Cynomolgus monkeys were administered the formulation above at a dose of 0.25 mg/kg of rapamycin and the following serum concentrations were determined at the indicated time after dosing.
Cynomolgus monkeys were administered the above formulation at a dose of 50 mg/kg of rapamycin and the following serum concentrations were determined at the indicated time after dosing.
Cynomolgus monkeys were administered this second comparative formulation at a dose of 50 mg/kg of rapamycin and the following serum concentrations were determined at the indicated time after dosing.

Candida albicans = details: cited from earlier work
tumor = details: in vivo; cited from earlier work
[2] = test system: experimental allergic encephalomyelitis; details: model for multiple sclerosis; Martel 1977; cited from earlier work
pulmonary inflammation = details: U.S. Pat. No. 5,080,899; cited from earlier work
adjuvant arthritis = details: model for rheumatoid arthritis; Martel 1977; cited from earlier work
thymocyte = details: in vitro; cited from earlier work
[3] = cited from earlier work
transplant rejection = details: useful in preventing transplant rejection; cited from earlier work
[4] = test system: insulin dependent diabetes mellitus; details: Fifth Int. Conf. Inflamm. Res. Assoc. 1990; cited from earlier work
[5] = test system: smooth muscle cell proliferation and intimal thickening; details: following vascular injury; Morris 1992; cited from earlier work
Microsporum gypseum = details: cited from earlier work
[6] = test system: systemic lupus erythematosus; details: U.S. Pat. No. 5,078,999; cited from earlier work
[7] = test system: rejection in vivo in allograft transplantation; details: Calne 1989; Morris and Meiser 1989; cited from earlier work
IgE-like antibodies = details: Martel 1977; cited from earlier work

Compound | Rapamycin Concentration in Monkey Serum [1] | effect on growth of fungi (Candida albicans) | antitumor activity (tumor) | efficacy in experimental allergic encephalomyelitis model [2] | preventing or treating pulmonary inflammation (pulmonary inflammation) | efficacy in adjuvant arthritis model (adjuvant arthritis) | thymocyte proliferation (thymocyte) | activity in vivo [3] | immunosuppressive effect (transplant rejection) | preventing or treating insulin dependent diabetes mellitus [4] | preventing or treating smooth muscle cell proliferation and intimal thickening [5] | effect on growth of fungi (Microsporum gypseum) | preventing or treating systemic lupus erythematosus [6] | inhibiting rejection in vivo in allograft transplantation [7] | formation of IgE-like antibodies (IgE-like antibodies)
CO[C@H]1C[C@@H]2CC[C@@H](C)[C@@](O)(O2)C(=O)C(=O)N2CCCC[C@H]2C(=O)O[C@H]([C@H](C)C[C@@H]2CC[C@@H](O)[C@H](OC)C2)CC(=O)[C@H](C)/C=C(\C)[C@@H](O)[C@@H](OC)C(=O)[C@H](C)C[C@H](C)/C=C/C=C/C=C/1C [Comparative Example 2] | BDL (key: BDL: Below detection limit (detection limit = 0.006 μg/ml)) | – | – | – | – | – | – | – | – | – | – | – | – | – | –
CO[C@H]1C[C@@H]2CC[C@@H](C)[C@@](O)(O2)C(=O)C(=O)N2CCCC[C@H]2C(=O)O[C@H]([C@H](C)C[C@@H]2CC[C@@H](O)[C@H](OC)C2)CC(=O)[C@H](C)/C=C(\C)[C@@H](O)[C@@H](OC)C(=O)[C@H](C)C[C@H](C)/C=C/C=C/C=C/1C [Rapamycin, rapamycin] | – | adversely affects the growth of fungi | antitumor activity | effective | useful in preventing or treating | effective | inhibit thymocyte proliferation in vitro | immunosuppressive, antifungal and antiinflammatory activity in vivo | immunosuppressive effects | useful in preventing or treating | useful in preventing or treating | adversely affects the growth of fungi | useful in preventing or treating | effectiveness of rapamycin in inhibiting rejection in vivo in allograft transplantation | effectively inhibited
C=CC[C@@H]1/C=C(\C)C[C@H](C)C[C@H](OC)[C@H]2O[C@@](O)(C(=O)C(=O)N3CCCC[C@H]3C(=O)O[C@H](/C(C)=C/[C@@H]3CC[C@@H](O)[C@H](OC)C3)[C@H](C)[C@@H](O)CC1=O)[C@H](C)C[C@@H]2OC [FK-506] | – | – | – | – | – | – | – | – | effective as immunosuppressive agents | – | – | – | – | – | –
